Test results taken from patent US11518758B2, “Heteroarylaminopyrimidine amide autophagy inhibitors and methods of use thereof” (Deciphera Pharmaceuticals, LLC, priority 2019, dated 2022).

What was measured:
ULK1 kinase [1] = target: T1, ULK1 kinase (Homo sapiens, UniProt O75385); assay: Biochemical assay for ULK1.2 (coupled pyruvate kinase/lactate dehydrogenase assay); conditions: 19 nM ULK1 (Eurofins), myelin basic protein, 1 mM ATP
T1 construct: purchased Eurofins 14-959
T1 sequence (O75385 with tags, fused parts or gaps): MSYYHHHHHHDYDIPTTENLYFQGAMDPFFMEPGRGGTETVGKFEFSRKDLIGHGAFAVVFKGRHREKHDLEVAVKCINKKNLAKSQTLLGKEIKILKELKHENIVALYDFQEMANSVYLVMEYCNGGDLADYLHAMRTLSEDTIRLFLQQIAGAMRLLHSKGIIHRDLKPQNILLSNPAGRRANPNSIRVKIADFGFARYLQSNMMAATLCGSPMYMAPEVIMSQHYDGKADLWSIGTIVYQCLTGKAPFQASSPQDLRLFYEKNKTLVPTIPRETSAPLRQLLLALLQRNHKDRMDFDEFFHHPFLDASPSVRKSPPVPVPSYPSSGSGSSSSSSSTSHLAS
In short: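 NADH-coupled PK/LDH read-out at 340 nm, run with 19 nM ULK1, 0.25 mg/mL myelin basic protein and 1 mM ATP. Buffer was 100 mM Tris pH 7.5 with 15 mM MgCl2 and 1% DMSO final. Monitoring was continuous for 6 hours at 30° C; rates from the 2-3 h window were converted to percent inhibition and fitted to a four-parameter curve for IC50.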

ULK2 kinase = target: T2, ULK2 kinase (Homo sapiens, UniProt Q8IYT8); assay: Biochemical assay for ULK2 (coupled pyruvate kinase/lactate dehydrogenase assay); conditions: 9.7 nM ULK2 (Eurofins), myelin basic protein, 1 mM ATP; read-out: ULK2.2
T2 construct: purchased Eurofins 14-772
T2 sequence (Q8IYT8 with tags, fused parts or gaps): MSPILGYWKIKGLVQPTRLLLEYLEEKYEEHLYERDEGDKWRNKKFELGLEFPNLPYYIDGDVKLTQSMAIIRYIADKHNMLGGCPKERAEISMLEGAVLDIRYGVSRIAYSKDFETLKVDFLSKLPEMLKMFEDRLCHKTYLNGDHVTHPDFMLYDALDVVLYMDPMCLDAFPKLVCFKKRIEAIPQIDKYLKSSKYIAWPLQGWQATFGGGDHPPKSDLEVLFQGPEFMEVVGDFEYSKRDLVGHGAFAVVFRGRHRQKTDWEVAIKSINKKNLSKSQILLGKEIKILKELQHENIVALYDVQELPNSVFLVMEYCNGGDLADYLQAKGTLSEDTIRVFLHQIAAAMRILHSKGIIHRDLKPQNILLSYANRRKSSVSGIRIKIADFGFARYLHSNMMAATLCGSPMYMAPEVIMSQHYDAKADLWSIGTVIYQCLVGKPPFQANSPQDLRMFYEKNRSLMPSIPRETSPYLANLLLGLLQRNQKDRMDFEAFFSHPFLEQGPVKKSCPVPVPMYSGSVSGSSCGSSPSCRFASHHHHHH
Method: Example 176. Biochemical Assay for ULK2
Activity of ULK2 kinase was determined spectroscopically using a coupled pyruvate kinase/lactate dehydrogenase assay that continuously monitors the ATP hydrolysis-dependent oxidation of NADH (e.g., Schindler et al. Science (2000) 289: 1938-1942). Assays were conducted in 384-well plates (100 uL final volume) using 9.7 nM ULK2 (Eurofins CAT #14-772), 0.25 mg/mL myelin basic protein, 1.5 units pyruvate kinase, 2.1 units lactate dehydrogenase, 1 mM phosphoenol pyruvate, 0.28 mM NADH and 1 mM ATP in assay buffer (100 mM Tris, pH 7.5, 15 mM MgCl2, 0.5 mM DTT, 0.1% octyl-glucoside, 0.002% (w/v) BSA, and 0.002% Triton X-100). Inhibition of ULK2 was measured by adding serial diluted test compound (final assay concentration of 1% DMSO). A decrease in absorption at 340 nm was monitored continuously for 6 hours at 30° C. on a multi-mode microplate reader (BioTek). The reaction rate was calculated using the 2-3 h time frame. The reaction rate at each concentration of compound was converted to percent inhibition using controls (i.e. reaction with no test compound and reaction with a known inhibitor) and IC50 values were calculated by fitting a four-parameter sigmoidal curve to the data using Prism (GraphPad software).

[2] = system: phospho-Serine 318 ATG13 (pATG13), ULK kinase substrate, in A549 (KRAS mutant) cells; assay: pATG13 levels of mutant KRas A549 cells after treatment with ULK inhibitors in combination with trametinib (ELISA); format: cell-based, human; conditions: with 250 nM trametinib
Method: Example 177. Cellular Inhibition of ULK Kinase Substrate ATG13 Protein pATG13 Levels of Mutant KRas A549 Cells after Treatment with ULK Inhibitors in Combination with Trametinib
(§1) A549 (KRAS mutant) human lung cancer cells (6,000 cells/well) were added to a 384-well tissue-culture treated plate in 50 μL of pre-warmed DMEM medium supplemented with 10% characterized fetal bovine serum (Invitrogen, Carlsbad, Calif.), 100 units/mL penicillin G, and 100 μg/mL streptomycin and allowed to grow overnight at 37° C., 5% CO2, and 95% humidity. The following day, 10 μL of media containing trametinib or DMSO as a control was added to wells. The final concentration of trametinib in wells was 250 nM. A dose response of a test compound (0.6 μL per well) was added. DMSO (0.6 μL) was added to control wells. The plate was briefly shaken to mix wells and then incubated at 37° C. overnight. The next day, the media was aspirated and cells were washed with Dulbecco's Phosphate Buffered Saline (Gibco). Cells were lysed using MPER lysis buffer (Pierce, Rockford, Ill.) containing Halt Phosphatase and Protease Inhibitors (Pierce, Rockford, Ill.) and Phosphatase inhibitor cocktail 2 (Sigma, St. Louis, Mo.) at 4° C. for 10 minutes with shaking.
(§2) Cellular levels of phospho-Serine 318 ATG13 (pATG13) were measured via an ELISA method. Total ATG13 Antibody (Cell Signaling Cat #13273) was used to coat the wells. The plate was incubated at 4° C. overnight and washed with ELISA wash buffer (Biolegend Cat #421601). The wells were then blocked with assay diluent (Biolegend Cat #421203) for 1 hour at room temperature. Plate wells were washed with ELISA wash buffer. Cell lysate was added to wells and incubated at room temperature for 2 hours. Plate wells were washed with ELISA wash buffer. Biotinylated pS318-ATG13 antibody (Rockland Immunochemicals Cat #600-401-C49) was diluted in assay diluent and added to each well and incubated at room temperature for 1 hour. Plate wells were washed with ELISA wash buffer. Streptavidin linked to horseradish peroxidase (Thermo Fisher Cat #21140) was diluted in assay diluent and added to each well and incubated at room temperature for 1 hour. Plate wells were washed with ELISA wash buffer. High sensitivity TMB substrate (Biolegend Cat #421101) was added to each well and incubated at room temperature for 20 minutes. The reaction was stopped with 2N Sulfuric Acid. The plate was analyzed at on a plate reader measuring absorbance at 450 nm and 540 nm (background). Signal was calculated by first subtracting the background absorbance at 540 nm from the absorbance at 450 nm for each well. Next, the background corrected absorbance at 450 nm from blank wells was subtracted from test wells. Data was compared to control wells to determine % ATG13 phosphorylation. GraphPad Prism was used to calculate IC50 values.

[3] = system: phospho-Serine 318 ATG13 (pATG13) in MiaPaCa-2 cells; assay: pATG13 levels of mutant KRas MiaPaCa-2 cells after treatment with ULK inhibitors in combination with trametinib (ELISA); format: cell-based, human
Method: Example 178. pATG13 Levels of Mutant KRas MiaPaCa-2 Cells after Treatment with ULK Inhibitors in Combination with Trametinib
as §1, with “MiaPaCa-2” for “A549 (KRAS mutant)”, “pancreatic” for “lung”, “(10000” for “(6,000”, “G,” for “G, and”, “streptomycin, and 2.5% Horse Serum” for “streptomycin”
as §2

ULK1 kinase [4] = target: T3, ULK1 kinase (Homo sapiens, UniProt O75385, E37A/K38A); assay: Biochemical assay for ULK1.3 (coupled pyruvate kinase/lactate dehydrogenase assay); conditions: 0.1 nM ULK1 (from Beryllium), peptide substrate, 1 mM ATP
T3 construct: (residues 1-283; ID NO: 2); purchased Beryllium
T3 sequence (O75385 1-283 E37A/K38A): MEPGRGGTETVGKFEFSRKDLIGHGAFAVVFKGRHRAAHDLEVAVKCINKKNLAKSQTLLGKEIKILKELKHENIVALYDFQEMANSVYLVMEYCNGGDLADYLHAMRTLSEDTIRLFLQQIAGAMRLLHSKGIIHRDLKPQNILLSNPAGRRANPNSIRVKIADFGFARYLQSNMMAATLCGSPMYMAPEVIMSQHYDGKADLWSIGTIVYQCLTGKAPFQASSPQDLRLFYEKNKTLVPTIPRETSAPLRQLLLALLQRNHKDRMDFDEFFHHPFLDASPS
Method: Example 175. Biochemical Assay for ULK1.3
Activity of ULK1 kinase was determined spectroscopically using a coupled pyruvate kinase/lactate dehydrogenase assay that continuously monitors the ATP hydrolysis-dependent oxidation of NADH (e.g., Schindler et al. Science (2000) 289: 1938-1942). Assays were conducted in 384-well plates (100 uL final volume) using 0.1 nM ULK1 (from Beryllium), 0.075 mM peptide substrate (YANWLAASIYLDGKKK (SEQ ID NO: 5)), 1.5 units pyruvate kinase, 2.1 units lactate dehydrogenase, 1 mM phosphoenol pyruvate, 0.28 mM NADH and 1 mM ATP in assay buffer (100 mM Tris, pH 7.5, 15 mM MgCl2, 0.5 mM DTT, 0.004% (w/v) BSA, and 0.004% Triton X-100). Inhibition of ULK1 was measured by adding serial diluted test compound (final assay concentration of 1% DMSO). A decrease in absorption at 340 nm was monitored continuously for 6 hours at 30° C. on a multi-mode microplate reader (BioTek). The reaction rate was calculated using the 2-3 h time frame. The reaction rate at each concentration of compound was converted to percent inhibition using controls (i.e. reaction with no test compound and reaction with a known inhibitor) and IC50 values were calculated using software routines in Prism (GraphPad software).

LRRK2 kinase = target: T4, LRRK2 kinase (Homo sapiens, UniProt Q5S007); assay: Biochemical assay for LRRK2 (coupled pyruvate kinase/lactate dehydrogenase assay); conditions: 26.4 nM LRRK2 (residues 970-2528), 0.1 mM peptide substrate, 1 mM ATP
T4 construct: purchased Thermo Fisher
T4 sequence (Q5S007 with tags, fused parts or gaps): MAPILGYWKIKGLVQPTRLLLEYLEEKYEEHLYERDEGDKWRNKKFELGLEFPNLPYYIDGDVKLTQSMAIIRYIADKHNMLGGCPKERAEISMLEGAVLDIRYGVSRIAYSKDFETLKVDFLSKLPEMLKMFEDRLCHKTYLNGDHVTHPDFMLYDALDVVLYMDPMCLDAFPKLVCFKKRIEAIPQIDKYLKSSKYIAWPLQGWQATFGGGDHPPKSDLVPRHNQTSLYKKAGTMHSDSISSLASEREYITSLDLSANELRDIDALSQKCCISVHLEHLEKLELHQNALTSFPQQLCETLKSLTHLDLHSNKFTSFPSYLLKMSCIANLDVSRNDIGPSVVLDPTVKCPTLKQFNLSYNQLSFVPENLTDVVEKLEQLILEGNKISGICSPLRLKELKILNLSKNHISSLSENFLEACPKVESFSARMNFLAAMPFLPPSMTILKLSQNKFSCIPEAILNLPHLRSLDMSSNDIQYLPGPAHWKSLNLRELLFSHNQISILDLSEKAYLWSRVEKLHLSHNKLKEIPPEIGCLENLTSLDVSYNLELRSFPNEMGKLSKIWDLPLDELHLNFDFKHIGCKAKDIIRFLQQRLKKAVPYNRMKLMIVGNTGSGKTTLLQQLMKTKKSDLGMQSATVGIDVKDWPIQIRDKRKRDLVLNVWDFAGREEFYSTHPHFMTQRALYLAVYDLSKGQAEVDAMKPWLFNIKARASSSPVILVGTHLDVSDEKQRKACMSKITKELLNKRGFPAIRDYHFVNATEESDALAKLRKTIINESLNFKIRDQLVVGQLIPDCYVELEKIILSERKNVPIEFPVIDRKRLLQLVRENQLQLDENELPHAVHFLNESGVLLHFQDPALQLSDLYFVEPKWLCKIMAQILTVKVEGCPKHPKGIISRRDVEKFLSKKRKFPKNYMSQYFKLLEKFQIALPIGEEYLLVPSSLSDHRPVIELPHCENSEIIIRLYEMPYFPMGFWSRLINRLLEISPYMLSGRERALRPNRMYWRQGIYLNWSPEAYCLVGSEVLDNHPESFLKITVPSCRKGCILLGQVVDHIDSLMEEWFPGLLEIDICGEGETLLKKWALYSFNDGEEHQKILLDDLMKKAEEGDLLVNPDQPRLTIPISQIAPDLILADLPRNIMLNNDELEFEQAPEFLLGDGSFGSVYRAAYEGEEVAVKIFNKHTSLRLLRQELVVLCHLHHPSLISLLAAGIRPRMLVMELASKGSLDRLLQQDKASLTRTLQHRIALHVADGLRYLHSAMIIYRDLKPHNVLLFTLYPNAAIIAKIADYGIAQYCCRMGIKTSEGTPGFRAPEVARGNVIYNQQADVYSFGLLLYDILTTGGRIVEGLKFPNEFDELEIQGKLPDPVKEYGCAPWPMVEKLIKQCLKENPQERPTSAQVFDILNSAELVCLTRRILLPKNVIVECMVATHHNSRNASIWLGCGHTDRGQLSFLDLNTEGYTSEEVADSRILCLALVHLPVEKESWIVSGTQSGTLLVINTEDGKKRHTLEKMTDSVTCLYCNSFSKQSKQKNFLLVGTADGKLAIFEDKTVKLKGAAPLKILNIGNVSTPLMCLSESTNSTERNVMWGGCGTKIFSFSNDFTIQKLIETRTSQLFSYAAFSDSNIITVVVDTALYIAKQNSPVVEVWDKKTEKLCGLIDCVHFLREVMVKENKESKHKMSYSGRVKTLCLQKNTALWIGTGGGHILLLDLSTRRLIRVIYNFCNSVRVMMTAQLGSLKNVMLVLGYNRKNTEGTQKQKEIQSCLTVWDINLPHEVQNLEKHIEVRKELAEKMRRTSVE

Row | SMILES | IC50 (ULK1 kinase [1]) [nM] | IC50 (ULK2 kinase) [nM] | IC50 [2] [nM] | IC50 [3] [nM] | IC50 (ULK1 kinase [4]) [nM] | IC50 (LRRK2 kinase) [nM]
1 | Cc1nn([C@@H]2CCNC2)cc1Nc1ncc(Br)c(NCCCN2CCCCC2=O)n1 [Example 60] | 25 to 100 | 100 to 500 | > 600 | 10 to 100 | – | –
2 | Cc1nn(C2CCN(C(C)C)CC2)cc1Nc1ncc(Br)c(NCCCN2CCCOC2=O)n1 [Example 71] | – | – | > 600 | 100 to 300 | 25 to 100 | –
3 | Cc1nn(C2CCN(C(C)C)CC2)cc1Nc1ncc(Cl)c(NCCCN2CCCOC2=O)n1 [Example 72] | – | – | > 600 | 100 to 300 | 25 to 100 | –
4 | Cc1nn(C2CCN(C)C2)cc1Nc1ncc(Br)c(NCCCN2CCCOCC2=O)n1 (stereo not shown) [Example 118] | – | – | 300 to 600 | 100 to 300 | 25 to 100 | 1 to 100
5 | Cc1nn(CCCN2CCOCC2)cc1Nc1ncc(C(F)(F)F)c(NCCCN2CCOCCC2=O)n1 [Example 129] | 100 to 500 | > 500 | > 600 | > 600 | – | –
6 | Cc1nn([C@@H]2CCN(C)C2)cc1Nc1ncc(Br)c(NCCCN2CCOCCC2=O)n1 [Example 138] | – | – | 300 to 600 | 100 to 300 | 25 to 100 | –

Second part, the compound after the results:

Row | IC50 (ULK1 kinase [1]) [nM] | IC50 (ULK2 kinase) [nM] | IC50 [2] [nM] | IC50 [3] [nM] | IC50 (ULK1 kinase [4]) [nM] | IC50 (LRRK2 kinase) [nM] | SMILES
7 | 25 to 100 | 100 to 500 | 100 to 300 | 10 to 100 | – | – | CCN1CCC(n2cc(Nc3cc(NCCCN4CCCCC4=O)c(C(F)(F)F)cn3)cn2)CC1 [Example 16]
8 | 25 to 100 | 100 to 500 | 100 to 300 | 100 to 300 | – | – | Cc1nn([C@@H]2CCN(C)C2)cc1Nc1ncc(Br)c(NCCCN2CCCCC2=O)n1 [Example 44]
9 | 25 to 100 | – | 100 to 300 | 100 to 300 | – | – | CCc1nn(C2CCN(CC)CC2)cc1Nc1ncc(Br)c(NCCCN2CCCCC2=O)n1 [Example 54]
10 | 25 to 100 | 100 to 500 | 100 to 300 | 100 to 300 | – | – | CCN1CC[C@H](n2cc(Nc3ncc(C(F)(F)F)c(NCCCN4CCCCC4=O)n3)c(C)n2)C1 [Example 66]
11 | 25 to 100 | – | 300 to 600 | 100 to 300 | – | – | O=C1CCCCCN1CCCNc1nc(Nc2cnn(CCN3CCOCC3)c2)ncc1C(F)(F)F [Example 96]
12 | 1 to 25 | 100 to 500 | 100 to 300 | 10 to 100 | – | – | Cc1nn(CCCN2CCCC2)cc1Nc1ncc(C(F)(F)F)c(NCCCN2CCCCCC2=O)n1 [Example 99]
13 | 1 to 25 | – | 10 to 100 | 10 to 100 | – | – | Cc1nn([C@@H]2CCN(C)C2)cc1Nc1ncc(C(F)(F)F)c(NCCCN2CCOCCC2=O)n1 [Example 133]
14 | – | – | 10 to 100 | 10 to 100 | 1 to 25 | – | CN1CCC(n2ccc(Nc3cc(NCCCN4CCCCC4=O)c(C(F)(F)F)cn3)n2)CC1 [Example 173]
